From patent US6706663B2, “Herbicidal 3-heterocyclic substituted benzisothiazole and benzisoxazole compounds” (Wyeth, priority 2000, dated 2004)

Columns and labels:
ZEAMX (Corn, Field) [1] = experiment: Preemergence herbicidal evaluation; type: in vivo, Zea mays, L.; details: preemergence, rated 4-5 weeks after treatment
ZEAMX (Corn, Field) [2] = experiment: Postemergence herbicidal evaluation; type: in vivo, Zea mays, L.
Summary of the method: (§1)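 Seedlings grown about two weeks in flats, sprayed, then kept under standard greenhouse care. Rated visually 4–5 weeks after treatment on a 0–9 scale (stand, vigour, malformation, size, chlorosis, overall appearance) relative to untreated control; repeat tests averaged.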

[3] = system: ECHORC (Echinochloa oryzoides); experiment: Flooded paddy, preemergence weed control; type: in vivo, Echinochloa oryzoides (Ard.) Fritsch.; details: rated 3-4 weeks after treatment, 0-9 rating scale
Summary of the method: (§2)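 Visual 0–9 ratings versus controls scored stand, vigor, malformation, size, chlorosis and overall appearance. Plants grew from seeds or propagating organs sown 0.5 cm deep in silt loam, with water held 1.5–3 cm above the soil for the whole test under greenhouse care.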

GALAP (Galium aparine) [4] = experiment: Preemergence herbicidal evaluation; type: in vivo; details: preemergence, rated 4-5 weeks after treatment
Summary of the method: (§3)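 Scores (0–9) reflect visual comparison with control plants for stand, vigor, malformation, size and chlorosis. Seeds in potting soil received a post-planting spray of compound in aqueous acetone and grew in a greenhouse until assessment 4–5 weeks later.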

[5] = system: GLXMAW (Soybean, Williams); experiment: Preemergence herbicidal evaluation; type: in vivo, Glycine max, (L.) Merr. cv Williams; details: preemergence, rated 4-5 weeks after treatment
[6] = system: TRZAWR (Wheat, Winter, cv Riband); experiment: Preemergence herbicidal evaluation; type: in vivo, Triticum aestivum; details: preemergence, rated 4-5 weeks after treatment
Summary of the method: as §3

ORYSAT (Rice, Tebonnet) = experiment: Preemergence herbicidal evaluation; type: in vivo, Oryza sativa, (L.) Tebonnet; details: preemergence, rated 4-5 weeks after treatment
[7] = system: GLXMAW (Soybean, Williams); experiment: Postemergence herbicidal evaluation; type: in vivo, Glycine max, (L.) Merr. cv Williams
Summary of the method: as §1

CYPIR (Cyperus iria) = experiment: Flooded paddy, preemergence weed control; type: in vivo; details: rated 3-4 weeks after treatment, 0-9 rating scale
Summary of the method: as §2

[8] = system: IPOHE (Ipomoea hederacea); experiment: Preemergence herbicidal evaluation; type: in vivo, (L.) Jacq.; details: preemergence, rated 4-5 weeks after treatment
GALAP (Galium aparine) [9] = experiment: Postemergence herbicidal evaluation; type: in vivo
Summary of the method: as §1

[10] = system: CASOB (Cassia obtusifolia); experiment: Preemergence herbicidal evaluation; type: in vivo, L.; details: preemergence, rated 4-5 weeks after treatment
Summary of the method: as §3

[11] = system: CHEAL (Chenopodium album); experiment: Preemergence herbicidal evaluation; type: in vivo, L.; details: preemergence, rated 4-5 weeks after treatment
Summary of the method: as §3

[12] = system: AMBEL (Ambrosia artemisifolia); experiment: Preemergence herbicidal evaluation; type: in vivo, L.; details: preemergence, rated 4-5 weeks after treatment
Summary of the method: as §3

[13] = system: CASOB (Cassia obtusifolia); experiment: Postemergence herbicidal evaluation; type: in vivo, L.
Summary of the method: as §1

[14] = system: CHEAL (Chenopodium album); experiment: Postemergence herbicidal evaluation; type: in vivo, L.
Summary of the method: as §1

[15] = system: AMBEL (Ambrosia artemisifolia); experiment: Postemergence herbicidal evaluation; type: in vivo, L.
Summary of the method: as §1

[16] = system: CYPSE (Cyperus serotinus); experiment: Flooded paddy, preemergence weed control; type: in vivo, Rottb.; details: rated 3-4 weeks after treatment, 0-9 rating scale
Summary of the method: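 Seeds or propagules were planted 0.5 cm deep in silt loam and flooded to 1.5–3 cm. Compounds in 50/50 v/v aqueous/acetone were pipetted into the flood water at about 0.0080 to 0.1250 kg/ha. After 3–4 weeks in the greenhouse, effect was rated visually on a 0–9 scale versus untreated control.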

[17] = system: ABUTH (Abutilon theophrasti); experiment: Postemergence herbicidal evaluation; type: in vivo, Medic.
Summary of the method: as §1

[18] = system: ECHCG (Echinochloa crus-galli); experiment: Postemergence herbicidal evaluation; type: in vivo, (L.) Beau
Summary of the method: as §1

[19] = system: IPOHE (Ipomoea hederacea); experiment: Postemergence herbicidal evaluation; type: in vivo, (L.) Jacq.
Summary of the method: as §1

Cn1c(C(F)(F)F)cc(=O)n(-c2ccc3snc(C(SCCO)SCCO)c3c2)c1=O [Compound 33, 1,2-benzisothiazole-3-carboxaldehyde, 5-[3,6-dihydro-3-methyl-2,6-dioxo-4-(trifluoromethyl)-1(2H)-pyrimidinyl]-, 3-[bis(2-hydroxyethyl)dithioacetal]]
ZEAMX preemergence herbicidal rating (ZEAMX (Corn, Field) [1]; Rate 0.0620 kg/ha): 0.0 | ZEAMX preemergence herbicidal rating (ZEAMX (Corn, Field) [1]; Rate 0.1250 kg/ha): 2.0 | ZEAMX preemergence herbicidal rating (ZEAMX (Corn, Field) [1]; Rate 0.2500 kg/ha): 2.0 | Postemergence herbicidal rating, ZEAMX (ZEAMX (Corn, Field) [2]; rate 0.0320 kg/ha): 5.0 | Postemergence herbicidal rating, ZEAMX (ZEAMX (Corn, Field) [2]; rate 0.0620 kg/ha): 5.5 | herbicidal rating, ECHORC ([3]; rate 0.0320 kg/ha): 0.0 | herbicidal rating, ECHORC ([3]; rate 0.1250 kg/ha): 2.0 | GALAP preemergence herbicidal rating (GALAP (Galium aparine) [4]; Rate 0.0620 kg/ha): 3.0 | GALAP preemergence herbicidal rating (GALAP (Galium aparine) [4]; Rate 0.1250 kg/ha): 2.0 | GALAP preemergence herbicidal rating (GALAP (Galium aparine) [4]; Rate 0.2500 kg/ha): 7.0 | GLXMAW preemergence herbicidal rating ([5]; Rate 0.0620 kg/ha): 0.0 | GLXMAW preemergence herbicidal rating ([5]; Rate 0.1250 kg/ha): 1.0 | GLXMAW preemergence herbicidal rating ([5]; Rate 0.2500 kg/ha): 3.0 | TRZAWR preemergence herbicidal rating ([6]; Rate 0.0620 kg/ha): 0.0 | TRZAWR preemergence herbicidal rating ([6]; Rate 0.1250 kg/ha): 1.0 | TRZAWR preemergence herbicidal rating ([6]; Rate 0.2500 kg/ha): 4.0 | ORYSAT preemergence herbicidal rating (ORYSAT (Rice, Tebonnet); Rate 0.0620 kg/ha): 0.0 | ORYSAT preemergence herbicidal rating (ORYSAT (Rice, Tebonnet); Rate 0.1250 kg/ha): 3.0 | ORYSAT preemergence herbicidal rating (ORYSAT (Rice, Tebonnet); Rate 0.2500 kg/ha): 6.0 | Postemergence herbicidal rating, GLXMAW ([7]; rate 0.0320 kg/ha): 5.0 | Postemergence herbicidal rating, GLXMAW ([7]; rate 0.0620 kg/ha): 5.5 | herbicidal rating, CYPIR (CYPIR (Cyperus iria); rate 0.0320 kg/ha): 0.0 | herbicidal rating, CYPIR (CYPIR (Cyperus iria); rate 0.1250 kg/ha): 3.0 | IPOHE preemergence herbicidal rating ([8]; Rate 0.0620 kg/ha): 0.0 | IPOHE preemergence herbicidal rating ([8]; Rate 0.1250 kg/ha): 5.0 | IPOHE preemergence herbicidal rating ([8]; Rate 0.2500 kg/ha): 5.0 | Postemergence herbicidal rating, GALAP (GALAP (Galium aparine) [9]; rate 0.0320 kg/ha): 0.0 | Postemergence herbicidal rating, GALAP (GALAP (Galium aparine) [9]; rate 0.0620 kg/ha): 3.0 | CASOB preemergence herbicidal rating ([10]; Rate 0.0620 kg/ha): 0.0 | CASOB preemergence herbicidal rating ([10]; Rate 0.1250 kg/ha): 0.0 | CASOB preemergence herbicidal rating ([10]; Rate 0.2500 kg/ha): 0.0 | CHEAL preemergence herbicidal rating ([11]; Rate 0.0620 kg/ha): 4.0 | CHEAL preemergence herbicidal rating ([11]; Rate 0.1250 kg/ha): 7.0 | CHEAL preemergence herbicidal rating ([11]; Rate 0.2500 kg/ha): 9.0 | AMBEL preemergence herbicidal rating ([12]; Rate 0.0620 kg/ha): 2.0 | AMBEL preemergence herbicidal rating ([12]; Rate 0.1250 kg/ha): 4.0 | AMBEL preemergence herbicidal rating ([12]; Rate 0.2500 kg/ha): 8.0 | Postemergence herbicidal rating, CASOB ([13]; rate 0.0320 kg/ha): 0.0 | Postemergence herbicidal rating, CASOB ([13]; rate 0.0620 kg/ha): 1.0 | Postemergence herbicidal rating, CHEAL ([14]; rate 0.0320 kg/ha): 3.0 | Postemergence herbicidal rating, CHEAL ([14]; rate 0.0620 kg/ha): 7.0 | Postemergence herbicidal rating, AMBEL ([15]; rate 0.0320 kg/ha): 4.0 | Postemergence herbicidal rating, AMBEL ([15]; rate 0.0620 kg/ha): 9.0 | herbicidal rating, CYPSE ([16]; rate 0.0320 kg/ha): 0.0 | herbicidal rating, CYPSE ([16]; rate 0.1250 kg/ha): 0.0 | Postemergence herbicidal rating, ABUTH ([17]; rate 0.0320 kg/ha): 9.0 | Postemergence herbicidal rating, ABUTH ([17]; rate 0.0620 kg/ha): 9.0 | Postemergence herbicidal rating, ECHCG ([18]; rate 0.0320 kg/ha): 1.0 | Postemergence herbicidal rating, ECHCG ([18]; rate 0.0620 kg/ha): 3.0 | Postemergence herbicidal rating, IPOHE ([19]; rate 0.0320 kg/ha): 7.0 | Postemergence herbicidal rating, IPOHE ([19]; rate 0.0620 kg/ha): 9.0
